Series [1] in a line: metabolic stability in rat plasma. The series is classed as in vitro ADME. Conditions: read-out: Rat plasma t1/2. An excerpt:
The metabolic stability of the peptides depends on the modifications to the peptides. […] As expected, peptides without N-terminal modification were rapidly metabolized (Table 2), presumably by aminopeptidases. […] Homogenization is likely to rupture cell membranes, releasing intracellular proteases that could metabolize these peptides, so that this system may not accurately reflect the metabolism that occurs in vivo. Endopeptidases capable of metabolizing Dyn A are also present on red blood cells, and can rapidly metabolize some Dyn A-(1-11) amide analogs, e.g. arodyn.

Series [2] in a line: BBMEC permeability (in-vitro model of the blood-brain barrier). As to conditions: for Papp: pH 7.4.
For series [3] the following is noted: rat, brain homogenate, half life (t1/2) in rat brain homogenate.
For series [4] the following is noted: rat, blood.
A further series deals with kappa-opioid receptor. Conditions: in vivo; cited from earlier work.
The target in series [5] is T1, kappa-opioid receptor (KOR) (Mus musculus, UniProt P33534).
T1 construct: from tissue; host or cells: living C57B1/6J mice (central and peripheral KOR)
As to conditions: animal models, after a single dose; cited from earlier work.

A short description of the next series: in vitro. As to conditions: rat, brain homogenate, half life (t1/2) in rat brain homogenate.
The target in the next series is KOR (Rattus norvegicus, UniProt P34975). In words: antagonist activity (adenylyl cyclase assay). The format is cell-based.
Series [6] deals with kappa-opioid receptor (KOR) (Rattus norvegicus, UniProt P34975). In words: binding affinity (Ki) at KOR.
Series [7] in a line: observation of side effects in mice. Conditions: mouse, in vivo. An excerpt: The ability of zyklophin to cross the BBB allows for any type of systemic administration, such as subcutaneous administration. Accordingly, zyklophin can be administered in a manner other than, but including, intercerebroventricular administration. Moreover, the ability of zyklophin to cross the BBB allows for a myriad of formulation opportunities, where the formulation can be prepared for a suitable mode or route of administration. As a consequence of having high selectivity for KOR and BBB permeability, zyklophin is a favorable drug candidate and as a lead drug for derivatizations and analoging. […] The mice data is discussed in more detail herein and in the incorporated references.

Like-named read-outs stand apart in the source and are kept apart here. Square brackets hold non-standard residues; d marks the D form. Peptide text beside a SMILES is read from it. Some results are limits rather than exact numbers.

A word on the efflux ratio: it is the permeability from basolateral to apical divided by that in the opposite direction, in the common usage. What is called Papp is the rate of passage across a membrane or cell layer, normalised by area and donor concentration. As usually defined, the Kb is the affinity of an antagonist, worked out from how it opposes an agonist. A high value points to a less potent antagonist. A word on the Ki: it is a dissociation constant, usually derived from enzyme kinetics or from competition with a known ligand. High values mean a looser hold on the target, low ones a stronger hold on the target.

T1 sequence (P33534 whole entry): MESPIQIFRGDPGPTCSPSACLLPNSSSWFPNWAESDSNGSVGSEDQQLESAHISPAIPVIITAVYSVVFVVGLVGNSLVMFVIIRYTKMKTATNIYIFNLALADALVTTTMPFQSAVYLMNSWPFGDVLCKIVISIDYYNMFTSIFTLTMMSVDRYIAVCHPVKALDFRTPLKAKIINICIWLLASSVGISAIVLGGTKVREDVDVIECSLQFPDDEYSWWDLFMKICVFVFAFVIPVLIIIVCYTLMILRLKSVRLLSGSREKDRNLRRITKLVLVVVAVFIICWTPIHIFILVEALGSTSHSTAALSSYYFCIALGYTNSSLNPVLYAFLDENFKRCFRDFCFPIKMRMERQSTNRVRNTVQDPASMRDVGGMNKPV
Chain of KOR (P34975 whole entry): as the sequence (P33534 whole entry) above, with D11E, S17A, S51P, A308V counted along it
Chain of kappa-opioid receptor (KOR) (Rattus norvegicus, UniProt P34975) (P34975 whole entry): as the sequence (P33534 whole entry) above, with D11E, S17A, S51P, A308V counted along it

With `CC[C@H](C)[C@H](NC(=O)[C@H](CCCNC(=N)N)NC(=O)[C@H](CCCNC(=N)N)NC(=O)[C@H](CC(C)C)NC(=O)[C@H](Cc1ccccc1)NC(=O)CNC(=O)CNC(=O)[C@H](Cc1ccc(O)cc1)NC(C)=O)C(=O)N[C@@H](CCCNC(=N)N)C(=O)N1CCC[C@H]1C(=O)N[C@@H](CCCCN)C(N)=O` [Ac-Dyn A-(1-11)NH2], the half-life in series [1] came out at 1.85 ± 0.283 h. Further, in series [2], the efflux ratio is 2.4 and the Papp was determined as 7.1 ± 2.3 ×10⁻⁶ cm/s.
On to `CC(=O)N[C@@H](Cc1ccccc1)C(=O)N[C@@H](Cc1ccccc1)C(=O)N[C@@H](Cc1ccccc1)C(=O)N[C@@H](CCCNC(=N)N)C(=O)N[C@@H](CC(C)C)C(=O)N[C@@H](CCCNC(=N)N)C(=O)N[C@@H](CCCNC(=N)N)C(=O)N[C@H](C)C(=O)N[C@@H](CCCNC(=N)N)C(=O)N1CCC[C@H]1C(=O)N[C@@H](CCCCN)C(N)=O` [Arodyn, Ac[Phe^1,2,3,Arg^4,D-Ala^8]Dyn A-(1-11) amide] (Ac-FFFRLRR[dA]RPK-NH2), for which the half-life in series [3] was 0.167 to 0.183 h; in [4] it was less than 2 min; in series [1] it was 1.73 ± 0.0667 h. In addition, in series [2], the efflux ratio was 1.6. This molecule returned a Papp in series [2] of 7.6 ± 3 ×10⁻⁶ cm/s.
Turning to `CC[C@H](C)[C@H](NC(=O)[C@H](CCCN=C(N)N)NC(=O)[C@H](CCCN=C(N)N)NC(=O)[C@H](CC(C)C)NC(=O)[C@H](Cc1ccccc1)NC(=O)CNC(=O)CNC(=O)[C@@H](N)Cc1ccc(O)cc1)C(=O)N[C@@H](CCCN=C(N)N)C(=O)N1CCC[C@H]1C(=O)N[C@@H](CCCCN)C(N)=O` [Dyn A-(1-11)NH2, Dynorphin A-(1-11) amide], in series [1], the half-life is less than 0.0333 h. Further, in series [2], the efflux ratio was 0.9 and the Papp amounted to 3.8 ± 1.3 ×10⁻⁶ cm/s.
Regarding `CC(C)[C@@H](CN1CC[C@@](C)(c2cccc(O)c2)[C@@H](C)C1)NC(=O)[C@H]1Cc2ccc(O)cc2CN1` [JDTic, (3R)-7-hydroxy-N-{(1S)-1-{[(3R,4R)-4-(3-hydroxyphenyl)-3,4-dimethyl-1-piperidinyl]methyl}-2-methylpropyl}-1,2,3,4-tetrahydro-3-isoquinolinecarbox-amide], the “effect on stress-induced reinstatement of cocaine seeking (literature)” value with kappa-opioid receptor is recorded as “suppress stress-induced reinstatement of cocaine self-administration”. Further, the “duration of action of KOR antagonism (literature)” value in [5] is listed as “prolonged duration of action”.
Turning to `Oc1ccc2c3c1O[C@H]1c4[nH]c5c(c4C[C@@]4(O)[C@@H](C2)N(CC2CC2)CC[C@]314)C[C@@]1(O)[C@H]2Cc3ccc(O)c4c3[C@@]1(CCN2CC1CC1)[C@H]5O4` [nor-binaltorphimine], in [5], the “duration of action of KOR antagonism (literature)” value is “prolonged duration of action”.
`N=C(N)NCCC[C@@H]1NC(=O)[C@H](CCCNC(=N)N)NC(=O)[C@H](NC(=O)[C@H](Cc2ccccc2)NC(=O)CNC(=O)CNC(=O)[C@H](Cc2ccc(O)cc2)NCc2ccccc2)CC(=O)NC[C@@H](C(=O)N[C@@H](CCCNC(=N)N)C(=O)N2CCC[C@H]2C(=O)N[C@@H](CCCCN)C(N)=O)NC1=O` [zyklophin, [N-benzylTyr^1,cyclo(D-Asp^5,Dap^8)]Dyn A-(1-11) amide] had a half-life in the series “in vitro” of 1.17 h. For the same molecule, the Kb at KOR is 84 nM. In series [6], this molecule gave a Ki of 30 ± 2 nM. In series [7], the “side effects in mice” value is given as “no unwanted side affects have been observed”.

(Values after patent publication US20090111741A1, “METHOD FOR TREATING AND/OR […] SEEKING BEHAVIOR” (priority 2007, published 2009).)
